The values below are quoted from earlier work in patent EP4026540A1, “A FILM COATED TABLET COMPRISING APIXABAN” (SANOVEL ILAC SANAYI VE TICARET A.S., priority 2021, dated 2022).

For the series the following is noted: single 10 mg dose.

`COc1ccc(-n2nc(C(N)=O)c3c2C(=O)N(c2ccc(N4CCCCC4=O)cc2)CC3)cc1` [apixaban, 1-(4-methoxyphenyl)-7-oxo-6-[4-(2-oxopiperidin-1-yl)phenyl]-4,5,6,7-tetrahydro-1H-pyrazolo[3,4-c]pyridine-3-carboxamide]: the oral bioavailability result is on record as “about 50%”.
